From patent US20250109126A1, “DIHYDRO-OXAZOL DERIVATIVE COMPOUNDS” (AC IMMUNE SA, priority 2021, published 2025) come the findings set out here.

The assay relates to NLRP3 inflammasome pathway. The experiment in a line: NLRP3 inflammasome pathway activation assay, IL-1β release (HTRF) in human monocyte-like cells stimulated with MSU or Nigericin. The class given is cell-based. As for the experimental part: The following assays were used to determine the inhibitory activity of test compounds on the NLRP3 inflammasome pathway using common stimuli Nigericin (Invivogen) or monosodium urate crystals (MSU) (Invivogen).
Human monocyte-like cells were cultured in RPMI-1640 Glutamax medium supplemented with 10% heat inactivated FCS and 50 U/ml penicillin-streptomycin (Life Technologies).
Human monocyte-like cells were seeded at 75000 per well in a 96-well plate and were differentiated overnight into macrophages with 10 ng/ml PMA (Phorbol Myristate Acetate). The following day, medium containing 10 ng/ml LPS (Lipopolysaccharide) were added. After 3 hours of LPS priming, concentrations of test compound in the range from 100 μM to 6 nM were added 30 min prior to NLRP3 inflammasome pathway stimulation with Nigericin 3.75 μM or MSU 200 μg/ml for 3 h.
For IL-1β quantification, supernatants were analyzed using HTRF kit according to the manufacturer's instructions (Cisbio 62HIL1BPEH). Briefly, in a 384-well ProxiPlate™ microplate, 8 μl of sample was mixed, with 4 μl of Anti-IL1β Cryptate antibody (40×) and Anti-IL1β XL antibody (40×). Then, incubated overnight at RT. Reading was done using an EnVision Reader (PerkinElmer).
IC50 (concentration corresponding to 50% inhibition) were determined using GraphPad Prism 8.

[1] abbreviates: Homo sapiens, 3 h, IL-1β release, PMA-differentiated, LPS-primed cells, MSU 200 μg/ml for 3 h, read-out: IC50 Human monocyte-like cells MSU.
Setting [2] is: Homo sapiens, 3 h, read-out: IC50 Human monocyte-like cells Nigericin (μM).
Where [3] appears, read: IL-1β release, PMA-differentiated, LPS-primed cells, MSU 200 μg/ml for 3 h, read-out: IC50 Human monocyte-like cells MSU.

Where two headings read alike, the source gives them in different places. Some results are limits rather than exact numbers.

As for `CCOC(=O)C1(c2ccon2)CN=C(Nc2c(-c3ccnc(OC)c3)cc(F)cc2C(C)C)O1` (racemic) [Example 1, ethyl 2-{[4-fluoro-2-(2-methoxypyridin-4-yl)-6-(propan-2-yl)phenyl]amino}-5-(1,2-oxazol-3-yl)-4,5-dihydro-1,3-oxazole-5-carboxylate], the IC50 under setting [1] is less than 1 µM.

On to `CCOC(=O)C1(c2ccon2)CN=C(Nc2c(-c3ccnc(OC)c3)ccc3c2CCC3)O1` (racemic) [Example 4, ethyl 2-{[5-(2-methoxypyridin-4-yl)-2,3-dihydro-1H-inden-4-yl]amino}-5-(1,2-oxazol-3-yl)-4,5-dihydro-1,3-oxazole-5-carboxylate], for which, under setting [1], the IC50 was less than 1 µM. On to `CCOC(=O)C1(c2ccon2)CN=C(Nc2c3c(c(C)c4c2CCC4)CCC3)O1` (racemic) [Example 7, ethyl 5-(isoxazol-3-yl)-2-((8-methyl-1,2,3,5,6,7-hexahydro-s-indacen-4-yl)amino)-4,5-dihydrooxazole-5-carboxylate], for which the IC50 under setting [1] was less than 1 µM. Still for that read-out and setting: for `COc1cc(-c2ccc3c(c2NC2=NCC(C(=O)O)(c4ccon4)O2)CCC3)ccn1` (racemic) [Example 12, 2-{[5-(2-methoxypyridin-4-yl)-2,3-dihydro-1H-inden-4-yl]amino}-5-(1,2-oxazol-3-yl)-4,5-dihydro-1,3-oxazole-5-carboxylic acid] the value was 1 to 10 µM; for `CCOC(=O)C1(c2ccon2)CN=C(Nc2c(-c3ccnc(OC)c3)ccc3c2CCO3)O1` (racemic) [Example 17, ethyl 5-(isoxazol-3-yl)-2-((5-(2-methoxypyridin-4-yl)-2,3-dihydrobenzofuran-4-yl)amino)-4,5-dihydrooxazole-5-carboxylate], less than 1 µM.

`CCOC(=O)C1(c2ccon2)CN=C(Nc2c(-c3ccncc3)cc(F)cc2C(C)C)O1` (racemic) [Example 18, ethyl 2-((4-fluoro-2-isopropyl-6-(pyridin-4-yl)phenyl)amino)-5-(isoxazol-3-yl)-4,5-dihydrooxazole-5-carboxylate]: the IC50 under setting [1] was less than 1 µM. Regarding `CCOC(=O)C1(c2ccon2)CN=C(Nc2c(-c3ccnc(OC)c3)cc(F)c3c2CCC3)O1` (racemic) [Example 19, ethyl 2-((7-fluoro-5-(2-methoxypyridin-4-yl)-2,3-dihydro-1H-inden-4-yl)amino)-5-(isoxazol-3-yl)-4,5-dihydrooxazole-5-carboxylate], the IC50 under setting [1] was less than 1 µM. Same read-out and setting: under `CCOC(=O)C1(c2ccon2)CN=C(Nc2c3c(cc(C)c2-c2ccnc(OC)c2)CCC3)O1` (racemic) [Example 20, ethyl 5-(isoxazol-3-yl)-2-((5-(2-methoxypyridin-4-yl)-6-methyl-2,3-dihydro-1H-inden-4-yl)amino)-4,5-dihydrooxazole-5-carboxylate] stands less than 1 µM. Take `CCOC(=O)C1(c2ccon2)CN=C(Nc2c3c(c(C(F)(F)F)c4c2CCC4)CCC3)O1` (racemic) [Example 21, ethyl 5-(isoxazol-3-yl)-2-((8-(trifluoromethyl)-1,2,3,5,6,7-hexahydro-s-indacen-4-yl)amino)-4,5-dihydrooxazole-5-carboxylate]: the IC50 was 1 to 10 µM under setting [1] and less than 1 µM under setting [2]. As for `CCOC(=O)C1(c2ccon2)CN=C(Nc2c(C(C)C)cc(F)cc2C(C)C)O1` (racemic) [Example 23, ethyl 2-((4-fluoro-2,6-diisopropylphenyl)amino)-5-(isoxazol-3-yl)-4,5-dihydrooxazole-5-carboxylate], the IC50 under setting [1] fell in the range of 1 to 10 µM.

On to `CCOC(=O)C1(c2ccon2)CN=C(Nc2c(-c3ccnc(OC)c3)cc(F)cc2C(C)C)O1` (single isomer, unassigned) [Example 2, ethyl 2-{[4-fluoro-2-(2-methoxypyridin-4-yl)-6-(propan-2-yl)phenyl]amino}-5-(1,2-oxazol-3-yl)-4,5-dihydro-1,3-oxazole-5-carboxylate], for which the IC50 under setting [1] is less than 1 µM. With `CCOC(=O)C1(c2ccon2)CN=C(Nc2c(-c3ccnc(OC)c3)cc(F)cc2C(C)C)O1` (single isomer, unassigned) [Example 3, ethyl 2-{[4-fluoro-2-(2-methoxypyridin-4-yl)-6-(propan-2-yl)phenyl]amino}-5-(1,2-oxazol-3-yl)-4,5-dihydro-1,3-oxazole-5-carboxylate], the IC50 under setting [3] fell in the range of 1 to 10 µM. For `CCOC(=O)C1(c2ccon2)CN=C(Nc2c3c(c(-c4ccccc4)c4c2CCC4)CCC3)O1` (single isomer, unassigned) [Example 9, ethyl 5-(isoxazol-3-yl)-2-((8-phenyl-1,2,3,5,6,7-hexahydro-s-indacen-4-yl)amino)-4,5-dihydrooxazole-5-carboxylate], the IC50 under setting [2] was 1 to 10 µM and the IC50 under setting [3] is less than 1 µM.

For the molecule `COc1cc(-c2cc(F)cc(C(C)C)c2NC2=NCC(C(=O)O)(c3ccon3)O2)ccn1` (single isomer, unassigned) [Example 11, 2-{[4-fluoro-2-(2-methoxypyridin-4-yl)-6-(propan-2-yl)phenyl]amino}-5-(1,2-oxazol-3-yl)-4,5-dihydro-1,3-oxazole-5-carboxylic acid], the IC50 was less than 1 µM under setting [1] and 1 to 10 µM under setting [2]. On to `Cc1c2c(c(NC3=NCC(C(=O)O)(c4ccon4)O3)c3c1CCC3)CCC2` (single isomer, unassigned) [Example 15, 2-[(8-methyl-1,2,3,5,6,7-hexahydro-s-indacen-4-yl)amino]-5-(1,2-oxazol-3-yl)-4,5-dihydro-1,3-oxazole-5-carboxylic acid], for which the IC50 under setting [1] was 1 to 10 µM. Consider `CCOC(=O)C1(c2ccon2)CN=C(Nc2c3c(c(-c4ccccc4)c4c2CCC4)CCC3)O1` (single isomer, unassigned) [Example 16, ethyl 5-(isoxazol-3-yl)-2-((8-phenyl-1,2,3,5,6,7-hexahydro-s-indacen-4-yl)amino)-4,5-dihydrooxazole-5-carboxylate], for which the IC50 is 10 to 30 µM under setting [3] and 1 to 10 µM (read-out: IC50 Human monocyte-like cells Nigericin, IL-1β release, PMA-differentiated, LPS-primed cells, Nigericin 3.75 μM for 3 h). `COc1cc(-c2cc(F)cc(C(C)C)c2NC2=NCC(C(=O)O)(c3ccon3)O2)ccn1` (stereo not shown) [Example 10, 2-{[4-fluoro-2-(2-methoxypyridin-4-yl)-6-(propan-2-yl)phenyl]amino}-5-(1,2-oxazol-3-yl)-4,5-dihydro-1,3-oxazole-5-carboxylic acid]: the IC50 under setting [1] is less than 1 µM. Consider `COc1cc(-c2ccc3c(c2NC2=NCC(C(=O)O)(c4ccon4)O2)CCC3)ccn1` (stereo not shown) [Example 13, 2-{[5-(2-methoxypyridin-4-yl)-2,3-dihydro-1H-inden-4-yl]amino}-5-(1,2-oxazol-3-yl)-4,5-dihydro-1,3-oxazole-5-carboxylic acid], for which the IC50 by setting is: under setting [1], less than 1 µM; under setting [2], 10 to 30 µM. With `Cc1c2c(c(NC3=NCC(C(=O)O)(c4ccon4)O3)c3c1CCC3)CCC2` (stereo not shown) [Example 14, 2-[(8-methyl-1,2,3,5,6,7-hexahydro-s-indacen-4-yl)amino]-5-(1,2-oxazol-3-yl)-4,5-dihydro-1,3-oxazole-5-carboxylic acid], the half-inhibitory concentration (IC50) under setting [1] lay in the range of 1 to 10 µM. With `COc1cc(-c2ccc3c(c2NC2=NCC(C(=O)O)(c4ccon4)O2)CCO3)ccn1` (stereo not shown) [Example 24, 5-(isoxazol-3-yl)-2-((5-(2-methoxypyridin-4-yl)-2,3-dihydrobenzofuran-4-yl)amino)-4,5-dihydrooxazole-5-carboxylic acid], the IC50 under setting [1] was 1 to 10 µM.

Consider `CC(C)c1cc(F)cc(-c2ccncc2)c1NC1=NCC(C(=O)O)(c2ccon2)O1` (stereo not shown) [Example 25, 2-((4-fluoro-2-isopropyl-6-(pyridin-4-yl)phenyl)amino)-5-(isoxazol-3-yl)-4,5-dihydrooxazole-5-carboxylic acid], for which the IC50 under setting [1] is 1 to 10 µM. Still for that read-out and setting: under `COc1cc(-c2cc(F)c3c(c2NC2=NCC(C(=O)O)(c4ccon4)O2)CCC3)ccn1` (stereo not shown) [Example 26, 2-((7-fluoro-5-(2-methoxypyridin-4-yl)-2,3-dihydro-1H-inden-4-yl)amino)-5-(isoxazol-3-yl)-4,5-dihydrooxazole-5-carboxylic acid] stands 1 to 10 µM.

On to `COc1cc(-c2c(C)cc3c(c2NC2=NCC(C(=O)O)(c4ccon4)O2)CCC3)ccn1` (stereo not shown) [Example 27, 5-(isoxazol-3-yl)-2-((5-(2-methoxypyridin-4-yl)-6-methyl-2,3-dihydro-1H-inden-4-yl)amino)-4,5-dihydrooxazole-5-carboxylic acid], for which the IC50 under setting [1] was less than 1 µM and the IC50 under setting [2] was in the range of 1 to 10 µM. `O=C(O)C1(c2cnoc2)CN=C(Nc2c3c(c(-c4ccccc4)c4c2CCC4)CCC3)O1` (stereo not shown) [Example 28, lithium 5-(isoxazol-4-yl)-2-((8-phenyl-1,2,3,5,6,7-hexahydro-s-indacen-4-yl)amino)-4,5-dihydrooxazole-5-carboxylate]: the IC50 (Homo sapiens, 3 h, read-out: IC50 Human monocyte-like cells MSU (μM)) fell in the range of 10 to 30 µM and the IC50 under setting [2] lay in the range of 10 to 30 µM.
